The values that follow come from paper PMC12818745 (ACS Chemical Neuroscience, 2025).

For one data set, the target named is T1, Aβ42 aggregation (Homo sapiens, UniProt P05067).
T1 construct: expressed in transfected cells; host or cells: E. coli BL21 (DE3), pET vector
Put plainly: Thioflavin S assay of Aβ42 aggregation in E. coli cells overexpressing Aβ42. The note with it: read-out: Aβ42 inhibition %. It is filed as cell-based, Escherichia coli. The procedure: (§1) The antiaggregating profiles of both series A and B were evaluated using a fluorescence Thioflavin S (ThS) assay in cellulo, which monitors ThS fluorescence in the presence of β-sheet-rich structures, such as Aβ and tau protein aggregates. This method, based on recombinant Escherichia coli (E. coli) bacteria overexpressing insoluble aggregates, offers a simple and cost-effective approach to model aggregation processes in mammalian systems and has been validated for use in drug discovery studies. , Compounds were tested at a screening concentration of 50 μM for their ability to inhibit Aβ42 aggregation. The results, summarized in Table , reveal distinct antiaggregating profiles between series A and B, which are once again influenced by their structural differences.
42 Amino acid Aβ42 was cloned and overexpressed in E. coli BL21 (DE3) competent cells using the pET vector harboring the DNA sequence of Aβ42. Due to the addition of the initiation codon ATG preceding genes, the resulting overexpressed peptide contained an additional methionine residue at its N-terminus. For the preparation of overnight cultures, a colony of BL21 (DE3) cells carrying the plasmid for expression was inoculated in 10 mL of M9 minimal medium supplemented with 50 μg mL^–1 kanamycin at 37 °C. Subsequently, a 1:500 dilution of the overnight culture was added to fresh M9 minimal medium containing 50 μg mL^–1 kanamycin and 25 μM ThS. The bacterial culture was then incubated at 37 °C with agitation at 250 rpm. Upon reaching an OD600 of 0.6, 980 μL of the culture was transferred into 1.5 mL Eppendorf tubes, each containing 10 μL of the compound to be tested dissolved in DMSO and 10 μL of 100 mM isopropyl 1-thio-β-D-galactopyranoside (IPTG) or, alternatively, 10 μL of water for the noninduced controls. The final compound concentration was adjusted to […]. The samples were allowed to grow overnight at 37 °C with agitation at 1400 rpm using a Thermomixer (Eppendorf). Negative controls, representing maximum amyloid presence, utilized free DMSO.
(§2) ThS (T1892) and all other chemical reagents were purchased from Sigma (St. Louis, MO). Stock solutions of ThS (250 μM) were prepared using doubly distilled water purified via a Milli-Q system (Millipore). For the fluorescence assay, ThS spectra were recorded utilizing an AmincoBowman series 2 luminescence spectrophotometer (Aminco-Bowman AB2, SLM Aminco, Rochester, NY) within the range of 460 to 600 nm at a temperature of 25 °C. The excitation wavelength employed was 445 nm, with slit widths set at 4 nm. The emission at 485 nm, corresponding to the ThS peak observed in the presence of amyloids, was recorded. To standardize ThS fluorescence relative to bacterial concentration in both in vitro and cell-based assays, the OD600 was determined using a Shimadzu UV-2401 PC UV–vis spectrophotometer. Fluorescence normalization was executed by setting the ThS fluorescence of bacterial cells expressing the peptide or protein in the absence of the drug as 100%, while that of bacterial cells not expressing the peptide or protein was established as 0%.

Data set [1] has as its target T2, eqBChE (equine serum butyrylcholinesterase) (Equus caballus, UniProt P81908).
T2 construct: eqBChE (equine serum butyrylcholinesterase); from tissue; host or cells: equine serum
Put plainly: Cholinesterase inhibition assay (modified Ellman's method), eqBChE. Format: biochemical. The text has this:
(§3) Compound series A and B were initially screened for their cholinesterase activity against eeAChE (Electrophorus electricus AChE) and eqBChE (equine serum butyrylcholinesterase), using an adaptation of the Ellman’s method. […]. […] Similarly, replacing the terminal triple bond in 7l with a nitrile group reduced its activity, while replacing the O-propargyl group with an N,N-dipropargyl group in 10 enhanced the inhibition of both enzymes, particularly BChE (Table ). The installation of an additional aryl ring in 7o further improved AChE inhibition, slightly increasing selectivity toward this enzyme. […]. […]. […]. The inhibitory activity of the synthesized compounds toward eeAChE and eqBChE was evaluated spectrophotometrically through a 96-well microplate modified Ellman’s method. The solutions of both enzymes were prepared as 0.025 U/mL in phosphate buffer at pH 7, from stock solutions of 5.05 U/mL and 7.50 U/mL, respectively. The stock solutions for the target compounds (0.1 M) were prepared in dimethyl sulfoxide (DMSO). […] The reaction mixture was prepared with 100 μL of the enzyme (eeAChE or eqBChE) and 50 μL of the test compound (or DMSO/water, not exceeding 0.2% of DMSO in the wells; i.e blank samples). After 5 min of the preincubation period at 37 °C, 50 μL of ATChI or BTChI and 50 μL of DTNB were added to each well, thus initiating the enzymatic reaction. The absorbance values were measured at 415 nm, for a total of 7.5 min, at every 2.5 min, using a microplate reader (Synergy multimode reader; BioTek). […]. All experiments were performed in triplicate.
On the technique in general: Ellman's reagent forms a yellow product with free thiols.

Data set [2] concerns the target eeAChE (Electrophorus electricus AChE) (Electrophorus electricus, UniProt O42275). Put plainly: Cholinesterase inhibition assay (modified Ellman's method), eeAChE. It is filed as biochemical.
Excerpt: as §3

The next data set in a line: in vitro. The procedure:
To assess BBB permeability, a parallel artificial membrane permeability assay (PAMPA)-BBB was performed, which predicts passive BBB permeability using a brain lipid porcine membrane.
The prediction of the brain penetration was evaluated using a PAMPA-BBB. […] Next, 100 μL of these stock solutions were added to a solution of 1400 μL of EtOH and 3500 μL of PBS at pH 7.4, to reach 30% of EtOH concentration in the experiment. These solutions were filtered, using Filter PDVF membrane units (diameter 30 mm, pore size 0.45 μm, from Symta). After this, the acceptor 96-well microplate (Multiscreen, catalogue no. MAMCS9610, from Millipore) was filled with 180 μL of PBS/EtOH (70/30). […] After 5 min, 180 μL of each compound solution was added. 1–2 mg of each selected compound was dissolved in 1500 μL of EtOH and 3500 μL of PBS at pH 7.4, filtered, and then added to the donor 96-well plate to determine their ability to cross the brain barrier. After this, the donor plate was carefully put on the acceptor plate to form a “sandwich” and incubated for 2.5 h at 25 °C. During this period, the compounds diffused from the donor plate through the brain lipid membrane into the acceptor plate. Afterward, the donor plate was removed. A 96-well plate UV reader (Thermoscientific, Multiskan spectrum) was used to determine the concentration of compounds and commercial drugs in the acceptor and donor wells. Every sample was analyzed at three to five wavelengths, in three wells, and in two independent runs. […] Ten quality control compounds (previously mentioned) of known BBB permeability were included in each experiment to validate the analysis set.

The next data set addresses T3, Tau protein aggregation (Homo sapiens, UniProt P10636).
T3 construct: For the cloning and overexpression of full-length tau protein; expressed in transfected cells; host or cells: E. coli BL21 (DE3) carrying pTARA and pRKT42
Put plainly: Thioflavin S assay of tau protein aggregation in E. coli cells overexpressing tau. Format: cell-based, Escherichia coli. The following applies: read-out: Tau inhibition %. How it is done: as §1
This strategic extension aimed to validate the chromeno[3,4-b]-xanthone scaffold for related aggregation targets, considering the structural and pathological similarities between Aβ and tau aggregation processes. […]. […] Nevertheless, it is important to interpret the results cautiously, as the inability of certain compounds to cross bacterial membranes, may have underestimated their true inhibitory activity in the assay.
For the cloning and overexpression of full-length tau protein, E. coli BL21 (DE3) competent cells were transformed first with the pTARA vector containing the RNA polymerase gene of phage T7 (T7RP), controlled by the PBAD promoter. Subsequently, E. coli BL21(DE3) competent cells containing pTARA were transformed with the pRKT42 vector encoding four repeats of tau protein in two inserts. Similar to the procedure for Aβ42, overnight cultures were prepared by inoculating colonies of BL21 (DE3) cells bearing the plasmids in M9 medium supplemented with 0.5% glucose, 50 μg mL^–1 ampicillin, and 12.5 μg mL^–1 chloramphenicol at 37 °C. Upon induction, a 1:500 dilution of the overnight culture was added to fresh M9 minimal medium containing 0.5% glucose, 50 μg mL^–1 ampicillin, 12.5 μg mL^–1 chloramphenicol, and 25 μM ThS. The subsequent steps mirrored those for the Aβ assay, including the addition of the compound to be tested dissolved in DMSO and 10 μL of 25% arabinose or, alternatively, 10 μL of water for the noninduced controls, with a final compound concentration of […]. Negative controls for tau overexpression utilized free DMSO.
as §2

SMILES strings stand for the structures.

Chain of eeAChE (Electrophorus electricus AChE) (O42275 24-633): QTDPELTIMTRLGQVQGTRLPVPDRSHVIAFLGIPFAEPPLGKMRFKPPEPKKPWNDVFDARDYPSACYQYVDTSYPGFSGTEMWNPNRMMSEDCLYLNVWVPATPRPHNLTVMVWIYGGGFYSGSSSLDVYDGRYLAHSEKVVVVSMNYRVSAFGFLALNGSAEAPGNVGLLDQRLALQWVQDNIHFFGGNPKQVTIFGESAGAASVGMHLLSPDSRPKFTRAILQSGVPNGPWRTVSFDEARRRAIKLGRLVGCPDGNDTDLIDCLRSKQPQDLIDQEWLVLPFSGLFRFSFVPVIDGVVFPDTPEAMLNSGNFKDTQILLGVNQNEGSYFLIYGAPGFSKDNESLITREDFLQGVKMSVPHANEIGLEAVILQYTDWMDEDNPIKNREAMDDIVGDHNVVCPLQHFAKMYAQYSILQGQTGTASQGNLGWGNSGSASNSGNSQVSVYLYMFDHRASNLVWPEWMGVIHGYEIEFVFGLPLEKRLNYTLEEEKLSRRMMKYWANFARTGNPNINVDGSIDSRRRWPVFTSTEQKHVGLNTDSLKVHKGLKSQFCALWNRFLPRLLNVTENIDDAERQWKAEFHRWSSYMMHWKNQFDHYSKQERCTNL
T2 sequence (P81908 whole entry): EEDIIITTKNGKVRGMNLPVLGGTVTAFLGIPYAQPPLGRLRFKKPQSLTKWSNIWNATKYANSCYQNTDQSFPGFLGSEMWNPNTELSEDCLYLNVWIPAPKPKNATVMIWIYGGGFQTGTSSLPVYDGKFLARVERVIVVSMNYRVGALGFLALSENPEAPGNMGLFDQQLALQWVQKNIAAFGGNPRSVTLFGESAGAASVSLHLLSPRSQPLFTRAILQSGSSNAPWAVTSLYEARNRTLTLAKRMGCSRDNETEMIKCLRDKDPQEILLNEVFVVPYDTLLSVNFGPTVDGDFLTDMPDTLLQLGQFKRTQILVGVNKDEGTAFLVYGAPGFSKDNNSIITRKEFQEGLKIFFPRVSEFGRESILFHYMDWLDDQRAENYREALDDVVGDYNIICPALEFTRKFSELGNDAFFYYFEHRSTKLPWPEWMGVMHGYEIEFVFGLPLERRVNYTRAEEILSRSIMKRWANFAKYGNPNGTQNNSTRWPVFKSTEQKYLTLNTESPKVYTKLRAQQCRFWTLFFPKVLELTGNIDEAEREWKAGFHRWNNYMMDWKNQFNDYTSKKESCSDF
T1 sequence (P05067 672-713): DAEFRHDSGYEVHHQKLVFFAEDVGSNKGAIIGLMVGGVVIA
T3 sequence (P10636 other isoform, or with tags, fused parts or gaps): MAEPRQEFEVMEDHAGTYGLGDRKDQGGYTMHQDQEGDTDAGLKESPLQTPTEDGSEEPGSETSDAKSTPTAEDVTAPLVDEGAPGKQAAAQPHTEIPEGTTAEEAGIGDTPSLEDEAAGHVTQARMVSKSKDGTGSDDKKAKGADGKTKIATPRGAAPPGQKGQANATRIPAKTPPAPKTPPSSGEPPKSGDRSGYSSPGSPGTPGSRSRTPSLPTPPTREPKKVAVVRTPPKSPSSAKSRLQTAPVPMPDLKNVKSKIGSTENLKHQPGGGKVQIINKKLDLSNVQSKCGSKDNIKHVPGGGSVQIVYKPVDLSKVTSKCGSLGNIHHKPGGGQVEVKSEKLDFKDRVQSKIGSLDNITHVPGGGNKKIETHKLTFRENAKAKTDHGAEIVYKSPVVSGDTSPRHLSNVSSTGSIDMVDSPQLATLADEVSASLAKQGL

One may read the inhibition as the drop in the measured response relative to a control, in per cent. A word on the IC50: it is the concentration that inhibits the measured activity by half. As a reminder, the Papp is a coefficient for how fast a substance crosses the barrier. A higher Papp goes with fast passage. Consider `COc1ccc2c(=O)c3cc4c(cc3oc2c1)-c1cc(Cl)cc(Br)c1OC4` [Compound 11s, 4-Bromo-2-chloro-11-methoxy-6H,8H-chromeno[3,4-b]xanthen-8-one], for which the inhibition at 50 µM at Aβ42 aggregation came to 46 ± 6.3%; on Tau protein aggregation, 58 ± 7.1%. Also, the IC50 in data set [1] came to 7 ± 0.4 µM; in data set [2], 1.7 ± 1.2 µM. Further, the “SI eeAChE” value in data set [2] (ratio eqBChE IC50/eeAChE IC50) is given as 4.12. The “Prediction (penetration into the CNS)” value in the data set “in vitro” (class from PAMPA-BBB P e) is given as “CNS+ (High BBB permeation predicted (CNS+) P e > 3.93)”. In addition, the Papp at 2.5 h in the data set “in vitro” (pig, PAMPA, pH 7.4) came to 8.7 ± 0.61 ×10⁻⁶ cm/s.
